ChEMBL document CHEMBL1132055, “1-Aminoisoquinoline as benzamidine isoster in the design and synthesis of orally active thrombin inhibitors” (Bioorg Med Chem Lett, 1999)

Tests used:
Serine protease 1 = Serine protease 1 (Homo sapiens, UniProt P07477); test: Compound was tested for inhibitory activity against trypsin
Caco-2 = details: Homo sapiens
Description: Compound was tested for its effect on increasing the permeability of Caco-2 cells

Prothrombin = Prothrombin (Homo sapiens, UniProt P00734); test: Compound was tested for inhibitory activity against thrombin

Chain of Serine protease 1 (P07477 whole entry): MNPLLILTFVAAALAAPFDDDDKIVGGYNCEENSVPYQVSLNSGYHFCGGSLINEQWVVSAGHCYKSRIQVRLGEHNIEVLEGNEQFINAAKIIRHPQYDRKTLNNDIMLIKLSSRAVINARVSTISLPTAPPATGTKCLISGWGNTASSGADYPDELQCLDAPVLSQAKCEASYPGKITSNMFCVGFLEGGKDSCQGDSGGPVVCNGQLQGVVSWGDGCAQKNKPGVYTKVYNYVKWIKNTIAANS

IC50 (Serine protease 1) [µM]	IC50 (Prothrombin) [µM]	Structure (SMILES)	Papp (Caco-2) [×10⁻⁶ cm/s]
255	55	Nc1nccc2cc(CC(NC(=O)CNS(=O)(=O)c3ccc4ccccc4c3)C(=O)N3CCCCC3)ccc12 (stereo unspecified)	1.9
		Cc1c(C)c(S(=O)(=O)NCC(=O)NC(Cc2ccc3c(N)nccc3c2)C(=O)N2CCCCC2)c(C)c2c1OC(C)(C)CC2 (stereo unspecified)	3.7
	357	Cc1ccc(S(=O)(=O)NCC(=O)NC(Cc2ccc3c(N)nccc3c2)C(=O)N2CCCCC2)cc1 (stereo unspecified)	
378		COc1cc(C)c(S(=O)(=O)N[C@@H](CC(=O)OC(C)(C)C)C(=O)NC(Cc2ccc3c(N)nccc3c2)C(=O)N2CCCCC2)c(C)c1C (stereo partly specified)	
